{"source": "patent US20160349242A1", "about": "“PLATFORM TECHNOLOGIES FOR SPONTANEOUSLY OCCURRING DISEASES” (Oatmeal Biotechnologies Group, LLC, priority 2009, published 2016)", "key": {"[1]": {"tested_on": "Canine TCC", "settings": "dog, in vivo; cited from earlier work"}, "[2]": {"tested_on": "circulating neutrophil counts", "settings": "immunosuppressive doses; cited from earlier work"}, "[3]": {"tested_on": "canine MGT", "settings": "dog, in vivo; cited from earlier work"}, "[4]": {"tested_on": "soft tissue sarcoma", "settings": "cited from earlier work"}, "[5]": {"tested_on": "soft tissue sarcoma", "settings": "intralesional, biphasic electric pulses; cited from earlier work"}, "[6]": {"tested_on": "canine soft tissue sarcoma", "settings": "bleomycin and electric pulses; cited from earlier work"}, "[7]": {"tested_on": "cultured cells", "settings": "cited from earlier work"}, "[8]": {"tested_on": "soft tissue sarcoma (STS) or malignant histiocytosis (MH)", "settings": "dog, in vivo", "experimental": "Depletion of MSC is accomplished by i.v. administration of LC, which is prepared as described for treatment of dogs with malignant histiocytosis (34). The LC is administered once every 2 weeks by slow i.v. infusion over 60 minutes, at a dose of 0.5 ml/kg."}, "[9]": {"tested_on": "MSC", "settings": "in vivo; cited from earlier work"}, "[10]": {"tested_on": "tumor growth", "settings": "mouse, in vivo; cited from earlier work"}, "[11]": {"tested_on": "spontaneous canine tumors", "settings": "dog, in vivo; cited from earlier work"}, "[12]": {"tested_on": "first-relapse NHL", "settings": "with lomustine vs lomustine and placebo; cited from earlier work"}, "[13]": {"tested_on": "high-grade osteosarcoma", "settings": "added to doxorubicin, cisplatin and high-dose methotrexate; cited from earlier work"}, "[14]": {"tested_on": "NHL", "settings": "cited from earlier work"}, "[15]": {"tested_on": "canine osteosarcoma", "settings": "non-metastatic dogs, cisplatin followed by L-MTP-PE or placebo; cited from earlier work"}}, "note": "Like-named read-outs stand apart in the source and are kept apart here. Square brackets hold non-standard residues; d marks the D form. Peptide text beside a SMILES is read from it. d(aIle) = CC[C@H](C)[C@@H](N)C(=O)O; Nva = CCC[C@H](N)C(=O)O; Sar = CNCC(=O)O"}
{"compound": "CN1C(C(=O)Nc2ccccn2)=C(O)c2ccccc2S1(=O)=O", "note": "[piroxicam]", "values": [{"measurement": "objective response rate", "setting": "[1]", "value": 18, "unit": "%"}]}
{"compound": "C[C@]12C=CC(=O)C=C1CC[C@@H]1[C@@H]2C(=O)C[C@@]2(C)[C@H]1CC[C@]2(O)C(=O)CO", "note": "[prednisone]", "values": [{"measurement": "time to rebound in circulating neutrophil counts", "setting": "[2]", "value": "48 to 72", "unit": "h"}]}
{"compound": "CC/C(=C(\\c1ccccc1)c1ccc(OCCN(C)C)cc1)c1ccccc1", "note": "[tamoxifen]", "values": [{"measurement": "anti-tumor activity", "setting": "[3]", "value": "does not have demonstrable anti-tumor activity"}]}
{"compound": "bleomycin", "values": [{"measurement": "average time of recurrence", "setting": "[4]; intraoperative bleomycin with electrotherapy", "value": 12, "unit": "months"}, {"measurement": "average time of recurrence", "setting": "[4]; postoperative bleomycin with electrotherapy", "value": 19, "unit": "months"}, {"measurement": "long term remissions", "setting": "[5]", "value": 40, "unit": "%"}, {"measurement": "overall response rate", "setting": "[5]", "value": 80, "unit": "%"}, {"measurement": "median time to recurrence", "setting": "[6]", "value": 730, "unit": "days"}, {"measurement": "response rate", "setting": "[6]", "value": 95, "unit": "%"}, {"measurement": "internalized fraction", "setting": "[7]", "value": "< 0.1", "unit": "%"}]}
{"compound": "liposomal clodronate [LC]", "values": [{"measurement": "tolerability", "setting": "[8]", "value": "well-tolerated"}]}
{"compound": "CC1=C(/C=C/C(C)=C/C=C/C(C)=C/C(=O)O)C(C)(C)CCC1", "note": "[ATRA, all-trans retinoic acid]", "values": [{"measurement": "spontaneous anti-tumor immunity", "setting": "[9]", "value": "improved"}, {"measurement": "vaccine responses", "setting": "[9]", "value": "significantly enhanced"}]}
{"compound": "CCC[C@H](NC(=O)[C@@H](NC(=O)[C@H](NC(=O)[C@@H](NC(=O)CNC(=O)CN(C)C(C)=O)C(C)C)[C@@H](C)CC)[C@@H](C)O)C(=O)N[C@H](C(=O)N[C@@H](CCCNC(=N)N)C(=O)N1CCC[C@H]1C(=O)NCC)[C@@H](C)CC", "note": "[ABT-526] (Ac-[Sar]GV[d(aIle)]T[Nva]IRP-NHEt)", "values": [{"measurement": "tumor growth", "setting": "[10]", "value": "slow tumor growth"}, {"measurement": "relative activity", "setting": "[11]", "value": "more active than ABT-510"}, {"measurement": "duration of response", "setting": "[12]", "value": "modestly enhanced"}, {"measurement": "number of cases responding to chemotherapy", "setting": "[12]", "value": "did not increase"}]}
{"compound": "O=P1(NCCCl)OCCCN1CCCl", "note": "(stereo not drawn) [ifosfamide]", "values": [{"measurement": "drug free survival (DFS)", "setting": "[13]", "value": "did not significantly improve"}, {"measurement": "overall survival (OS)", "setting": "[13]", "value": "did not significantly improve"}]}
{"compound": "COc1cccc2c1C(=O)c1c(O)c3c(c(O)c1C2=O)C[C@@](O)(C(=O)CO)C[C@@H]3O[C@H]1C[C@H](N)[C@H](O)[C@H](C)O1", "note": "[doxorubicin]", "values": [{"measurement": "anti-tumor activity", "setting": "[3]", "value": "a few partial responses"}]}
{"compound": "Cc1ncc(CO)c(CO)c1O", "note": "[pyridoxine]", "values": [{"measurement": "relative risk of developing PPES, placebo group versus pyridoxine", "setting": "[14]; daily Doxil with oral pyridoxine or placebo", "value": 4.2, "unit": "times"}, {"measurement": "PPES symptoms", "setting": "[14]; dog, in vivo", "value": "delayed and lessened the symptoms"}, {"measurement": "remission rates between treatment groups", "setting": "[14]; dog, in vivo", "value": "No difference"}]}
{"compound": "N.N.[Cl][Pt][Cl]", "note": "[cisplatin]", "values": [{"measurement": "median survival time", "setting": "[15]", "value": 9.8, "unit": "months"}]}
